Experiments:
WIL2-NS (Non-Cancerous) [1] = test: combination Emax (second highest fraction inhibited in the dose matrix, 72 h); higher = more inhibition; extreme values may be limits of the assay
How it was run: (§1)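 Bliss excess equals the observed combination effect minus the expected value EA + EB − EA·EB, where EA and EB are the effects of each agent alone. Combination Emax is the second-highest inhibition within the matrix. Inhibition was scaled from CellTiter-Glo 2.0 luminescence, with 0 set by vehicle wells and 1 by blank wells, after 72 hours of two-drug dosing of cells plated in 1536-well plates.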

[2] = test system: GR-ST (B-Lymphoblastic Leukemia); test: as above
How it was run: as §1

[3] = test system: K-562 (Chronic Myelogenous Leukemia); test: as above
How it was run: as §1

[4] = test system: L-540 (Hodgkin's Lymphoma); test: as above
How it was run: as §1

[5] = test system: SW837 (Colorectal Carcinoma); test: as above
How it was run: as §1

[6] = test system: BL-41 (Burkitt's Lymphoma); test: as above
How it was run: as §1

[7] = test system: CAMA-1 (Breast Carcinoma); test: as above
How it was run: as §1

ES1 (Ewing's Sarcoma) [8] = test: as above
How it was run: as §1

NCI-H2818 (Mesothelioma) [9] = test: as above
How it was run: as §1

[10] = test system: MKN28 (Gastric Carcinoma); test: as above
How it was run: as §1

[11] = test system: DND-41 (T-Lymphoblastic Leukemia); test: as above
How it was run: as §1

[12] = test system: SW1417 (Colorectal Carcinoma); test: as above
How it was run: as §1

ES8 (Ewing's Sarcoma) [13] = test: as above
How it was run: as §1

[14] = test system: NCI-H1792 (Lung Adenocarcinoma); test: as above
How it was run: as §1

[15] = test system: BFTC-905 (Bladder Carcinoma); test: as above
How it was run: as §1

[16] = test system: SR (Other Blood Carcinomas); test: as above
How it was run: as §1

WM-115 (Melanoma) [17] = test: as above
How it was run: as §1

WIL2-NS (Non-Cancerous) [18] = test: Bliss excess, mean over the matrix (fraction); higher = more synergy
How it was run: as §1

[19] = test system: GR-ST (B-Lymphoblastic Leukemia); test: as above
How it was run: as §1

[20] = test system: K-562 (Chronic Myelogenous Leukemia); test: as above
How it was run: as §1

[21] = test system: L-540 (Hodgkin's Lymphoma); test: as above
How it was run: as §1

[22] = test system: SW837 (Colorectal Carcinoma); test: as above
How it was run: as §1

[23] = test system: BL-41 (Burkitt's Lymphoma); test: as above
How it was run: as §1

[24] = test system: CAMA-1 (Breast Carcinoma); test: as above
How it was run: as §1

ES1 (Ewing's Sarcoma) [25] = test: as above
How it was run: as §1

NCI-H2818 (Mesothelioma) [26] = test: as above
How it was run: as §1

[27] = test system: MKN28 (Gastric Carcinoma); test: as above
How it was run: as §1

[28] = test system: DND-41 (T-Lymphoblastic Leukemia); test: as above
How it was run: as §1

[29] = test system: SW1417 (Colorectal Carcinoma); test: as above
How it was run: as §1

ES8 (Ewing's Sarcoma) [30] = test: as above
How it was run: as §1

[31] = test system: NCI-H1792 (Lung Adenocarcinoma); test: as above
How it was run: as §1

[32] = test system: BFTC-905 (Bladder Carcinoma); test: as above
How it was run: as §1

[33] = test system: SR (Other Blood Carcinomas); test: as above
How it was run: as §1

WM-115 (Melanoma) [34] = test: as above
How it was run: as §1

Compound | combination Emax (WIL2-NS (Non-Cancerous) [1]) | combination Emax [2] | combination Emax [3] | combination Emax [4] | combination Emax [5] | combination Emax [6] | combination Emax [7] | combination Emax (ES1 (Ewing's Sarcoma) [8]) | combination Emax (NCI-H2818 (Mesothelioma) [9]) | combination Emax [10] | combination Emax [11] | combination Emax [12] | combination Emax (ES8 (Ewing's Sarcoma) [13]) | combination Emax [14] | combination Emax [15] | combination Emax [16] | combination Emax (WM-115 (Melanoma) [17]) | Bliss excess (WIL2-NS (Non-Cancerous) [18]) | Bliss excess [19] | Bliss excess [20] | Bliss excess [21] | Bliss excess [22] | Bliss excess [23] | Bliss excess [24] | Bliss excess (ES1 (Ewing's Sarcoma) [25]) | Bliss excess (NCI-H2818 (Mesothelioma) [26]) | Bliss excess [27] | Bliss excess [28] | Bliss excess [29] | Bliss excess (ES8 (Ewing's Sarcoma) [30]) | Bliss excess [31] | Bliss excess [32] | Bliss excess [33] | Bliss excess (WM-115 (Melanoma) [34])
CN(CCO)CC[C@H](CSc1ccccc1)Nc1ccc(S(=O)(=O)NC(=O)c2ccc(N3CCC([C@@H](O)c4ccccc4-c4ccc(Cl)cc4)CC3)cc2)cc1S(=O)(=O)C(F)(F)F [AZD4320] + CC(=O)O[C@H]1C(=O)[C@@]2(C)[C@H]([C@H](OC(=O)c3ccccc3)[C@]3(O)C[C@H](OC(=O)[C@H](O)[C@@H](NC(=O)c4ccccc4)c4ccccc4)C(C)=C1C3(C)C)[C@]1(OC(C)=O)CO[C@@H]1C[C@@H]2O [Paclitaxel] (first compound max 1 µM, 7x7, partner max 3 µM) | 0.942 | 0.839 | 0.981 | 0.974 | 0.878 | 1 | 0.843 | 0.984 | 0.745 | 0.738 | 1 | 0.864 | 1 | 0.986 | 0.989 | 1 | 0.851 | -0.0331 | -0.0651 | -0.0181 | 0.0162 | 0.0777 | -0.0222 | 0.119 | -0.0272 | 0.0844 | 0.0942 | 0.187 | 0.0037 | 0.0317 | 0.0049 | 0.0384 | 0.0061 | 0.0811
Cc1nc(-c2cn3c(n2)-c2ccc(-c4cnn(C(C)(C)C(N)=O)c4)cc2OCC3)n(C(C)C)n1 [Taselisib] + O=C(Nc1ccc2[nH]nc(-c3ccncc3)c2c1)[C@@H]1CCN(CC(=O)N2CCN(c3ccc(-c4ncccn4)cc3)CC2)C1 [SCH772984] (first compound max 10 µM, 7x7, partner max 5 µM) | 0.728 | 0.706 | 0.53 | 0.474 | 0.747 | 0.263 | 0.563 | 0.77 | 0.372 | 0.451 | 0.611 | 0.756 | 0.84 | 0.966 | 0.999 | 0.681 | 0.951 | 0.106 | -0.0418 | 0.0488 | 0.0023 | 0.0556 | 0.0266 | 0.0216 | 0.0604 | 0.0096 | 0.0966 | 0.14 | 0.0781 | 0.117 | 0.0818 | 0.172 | 0.177 | 0.0394
C[C@@H](Oc1cc(-c2cnn(C3CCNCC3)c2)cnc1N)c1c(Cl)ccc(F)c1Cl [Crizotinib] + Cn1cnc2c(F)c(Nc3ccc(Br)cc3Cl)c(C(=O)NOCCO)cc21 [Selumetinib] (first compound max 10 µM, 7x7, partner max 10 µM) | 0.485 | 0.972 | 0.947 | 0.553 | 0.562 | 1 | 0.156 | 0.843 | 0.329 | 0.516 | 0.971 | 0.608 | 0.921 | 0.917 | 0.912 | 1 | 0.476 | -0.026 | -0.0439 | 0.0366 | -0.0703 | -0.0422 | -0.0265 | -0.042 | -0.0239 | -0.0068 | 0.016 | 0.0194 | 0.0093 | -0.0482 | -0.022 | -0.0138 | -0.0195 | -0.0547
Cc1c2c(nn1C)CSCc1cc(n(C)n1)CSc1cc(c3ccccc3c1)OCCCc1c(C(=O)O)n(C)c3c-2c(Cl)ccc13 [AZD5991] + Nc1ccn([C@@H]2O[C@H](CO)[C@@H](O)C2(F)F)c(=O)n1 [Gemcitabine] (first compound max 1 µM, 7x7, partner max 0.3 µM) | 0.942 | 0.791 | 0.222 | 1 | 0.273 | 1 | 0.942 | 1 | 0.358 | 0.161 | 0.848 | 0.332 | 1 | 0.774 | 0.909 | 0.991 | 0.431 | -0.0263 | -0.0516 | 0.0045 | 0.0162 | -0.0606 | -0.0263 | 0.133 | 0.0102 | -0.0771 | -0.0367 | 0.021 | 0.0394 | -0.0121 | -0.0308 | -0.0194 | 0.0073 | -0.0572
Cc1c2c(nn1C)CSCc1cc(n(C)n1)CSc1cc(c3ccccc3c1)OCCCc1c(C(=O)O)n(C)c3c-2c(Cl)ccc13 [AZD5991] + CS(=O)(=O)CCNCc1ccc(-c2ccc3ncnc(Nc4ccc(OCc5cccc(F)c5)c(Cl)c4)c3c2)o1 [Lapatinib] (first compound max 1 µM, 7x7, partner max 10 µM) | 0.27 | 0.955 | 0.52 | 0.996 | 0.303 | 1 | 0.791 | 0.9 | 0.277 | 0.41 | 0.792 | 0.192 | 0.763 | 0.453 | 0.407 | 0.927 | 0.32 | -0.118 | 0.0082 | 0.0139 | 0.04 | -0.0176 | -0.0004 | -0.0054 | -0.0151 | -0.0282 | -0.0112 | -0.016 | -0.0142 | 0.109 | 0.0446 | 0.023 | 0.0023 | -0.0164
Cc1c2c(nn1C)CSCc1cc(n(C)n1)CSc1cc(c3ccccc3c1)OCCCc1c(C(=O)O)n(C)c3c-2c(Cl)ccc13 [AZD5991] + CC(=O)O[C@H]1C(=O)[C@@]2(C)[C@H]([C@H](OC(=O)c3ccccc3)[C@]3(O)C[C@H](OC(=O)[C@H](O)[C@@H](NC(=O)c4ccccc4)c4ccccc4)C(C)=C1C3(C)C)[C@]1(OC(C)=O)CO[C@@H]1C[C@@H]2O [Paclitaxel] (first compound max 1 µM, 7x7, partner max 3 µM) | 0.824 | 0.805 | 0.877 | 1 | 0.62 | 1 | 0.957 | 1 | 0.599 | 0.49 | 0.251 | 0.529 | 1 | 0.959 | 0.975 | 1 | 0.631 | -0.137 | -0.0628 | -0.0245 | 0.0087 | -0.0327 | -0.0098 | 0.117 | -0.0419 | -0.0054 | -0.011 | 0.0348 | 0.0164 | 0.0091 | -0.0037 | 0.0108 | 0.0191 | -0.0392
O=C(c1cc(Cc2n[nH]c(=O)c3ccccc23)ccc1F)N1CCN(C(=O)C2CC2)CC1 [Olaparib] + CC1(C)CCC(CN2CCN(c3ccc(C(=O)NS(=O)(=O)c4ccc(NCC5CCOCC5)c([N+](=O)[O-])c4)c(Oc4cnc5[nH]ccc5c4)c3)CC2)=C(c2ccc(Cl)cc2)C1 [Venetoclax] (first compound max 10 µM, 7x7, partner max 1 µM) | 0.46 | 0.526 | 0.172 | 0.558 | 0.112 | 0.318 | 0.211 | 0.841 | 0.158 | 0.105 | 0.29 | 0.124 | 0.964 | 0.109 | 0.193 | 0.567 | 0.241 | 0.0261 | -0.0349 | -0.0133 | 0.0188 | -0.0548 | 0.0183 | -0.0106 | 0.0271 | -0.0238 | -0.0514 | 0.0243 | -0.0223 | -0.0224 | -0.0302 | -0.0334 | 0.0961 | -0.052
C[C@@H]1COCCN1c1cc(C2([S@](C)(=N)=O)CC2)nc(-c2ccnc3[nH]ccc23)n1 [AZD6738] + C1CC(C1)(C(=O)[O-])C(=O)[O-].N.N.[Pt+2] [Carboplatin] (first compound max 10 µM, 7x7, partner max 10 µM) | 0.922 | 0.747 | 0.847 | 0.894 | 0.402 | 0.974 | 0.381 | 0.917 | 0.378 | 0.327 | 0.919 | 0.375 | 0.925 | 0.733 | 0.723 | 0.879 | 0.425 | -0.0241 | -0.0241 | -0.031 | -0.0267 | -0.0837 | -0.0271 | -0.0454 | -0.0078 | -0.0286 | -0.0242 | -0.0146 | -0.0074 | 0.0982 | -0.0303 | 0.0337 | -0.0383 | -0.0607

Source: the supplement of paper PMC11061612
